From US10196685B2, “Methods and systems for delivering process gases to critical process applications” (RASIRC, INC., priority 2014, dated 2019)
“And” between values parts separate entries of the source, which are not always exact repeats. Equal values may be shown once. Read-outs that look alike come from different tables or passages of the source.

Key:
bovine genomic DNA = conditions: H2O2 505 ppm, 5 hours; for Average Decrease %: three replicates
Protocol: (§1) The initial test manifold was set to the following temperatures: • Zone 1=72° C. (Outlet temperature of SGD) • Zone 3=90° C.
The dilution gas flow rate was set to 5 slm, the RHS carrier gas to 180 sccm, and the SGD carrier gas flow to 1 slm. The RHS was then set to a 35° C. dew point, and the SGD to 30° C., running both gas streams to vent. The furnace and the heat-traced line temperatures were adjusted to achieve the desired gas temperatures. The SGD and RHS systems were allowed to stabilize. Samples were treated and processed as described in the following Examples.
A PCR plate to be used for quantifying amplifiable DNA was prepared with three replicates at each target input level (i.e., ranging from 0 ng to 1,000 ng). In each instance, measured aliquots of an aqueous solution of bovine genomic DNA were added to individual wells of the plate, and then dried. […] The chamber was initially purged for 15 minutes with CDA. […] Finally, the chamber was purged for an additional 15 minutes with CDA. Each well containing treated sample next received an aliquot of liquid reagents needed to carry out PCR amplification reactions. These reagents included: a pair of unlabeled DNA primers capable of amplifying the template; nucleotide triphosphates; buffer and salts; a dual-labeled hydrolysis probe specific for the DNA amplification product; and a thermostable DNA polymerase having 5′-3′ exonuclease activity. Amplification reactions were carried out using procedures familiar to those of ordinary skill in the art, and the appearance of fluorescent signals monitored as a function of time in a real-time format.

bacterial samples = conditions: visible mist or fog, droplets condensed onto the sample
E. coli [1] = conditions: 1.7×10^7 cfu E. coli per spot; gas-phase H2O2 505 ppm, H2O 2122 ppm, 60 minutes, 25° C.
Source text: The CDA gas pressure was maintained at 25 psig with the pressure regulator. A 0.01 micron filter removed particulates from the gas stream. The MFCs controlled the flow of the carrier gas streams and the dilution gas stream. […] The water temperature was used to control the output of the humidifier. The valves (V-1, V-2, and V-3) were used to send either the dry CDA gas stream, the RHS gas stream, and/or SGD gas stream through the furnace or out to vent. […] TC-3 and TC-4 were used to measure the gas temperature downstream of the SGD. The furnace was used to keep the bacterial samples at temperature to prevent condensation. TC-5 was used to measure the temperature in the quartz furnace. TC-6 was used to measure the gas temperature downstream of the furnace. A pressure gauge (PG-1) was used to monitor the pressure in the furnace. A Teledyne Prototype Analyzer was used to determine stability of the peroxide gas and its temperature was kept at 120° C. […] The boxed sections show the individual heat traced control zones for this experiment.
as §1
The dilution gas flow rate was set to 5 slm, the RHS carrier gas to 180 sccm, and the SGD carrier gas flow to 1 slm. The RHS was then set to a 35° C. dew point, and the SGD to 30° C., running both gas streams to vent. […]

S. epi = system: S. epi
Protocol: (§2) A 0.01 micron filter removed particulates from the gas stream. […] The water temperature was used to control the output of the humidifier. […] The furnace was used to keep the bacterial samples at temperature to prevent condensation. […] The boxed sections show the individual heat traced control zones for this experiment.
as §1

E. coli [2] = system: E. coli
Protocol: as §2, §1

For `OO` [hydrogen peroxide gas, hydrogen peroxide], the Decrease % (bovine genomic DNA; Input 1 ng DNA, 25° C.) was 100%, the Remaining % (bovine genomic DNA; Input 1 ng DNA, 25° C.) was 0% and the “Calculated ng After Treatment” value (bovine genomic DNA; Input 1 ng DNA, H2O 2122 ppm, 25° C.) was 0 ng. For the same compound, the “Average Decrease %” value (bovine genomic DNA; Input 1 ng DNA, 25° C.) was 100.00%, the Decrease % (bovine genomic DNA; Input 10 ng DNA, 25° C.) was 98.55% and 99.28% and 94.5% and the “Average Decrease %” value (bovine genomic DNA; Input 10 ng DNA, 25° C.) was 97.44%. For the same compound, the Decrease % (bovine genomic DNA; Input 100 ng DNA, 25° C.) was 99.19% and 99.92% and 99.978%, the “Average Decrease %” value (bovine genomic DNA; Input 100 ng DNA, 25° C.) was 99.70% and the Decrease % (bovine genomic DNA; Input 1000 ng DNA, 25° C.) was 99.9957% and 99.9953% and 99.967%. For the same compound, the “Average Decrease %” value (bovine genomic DNA; Input 1000 ng DNA, 25° C.) was 99.99%, the “Reduction of amplifiable DNA” value (bovine genomic DNA; sample containing the greatest amount of starting material) was “about 4 logs” and the “Amplifiable DNA after treatment” value (bovine genomic DNA; sample containing the lowest amount of starting material) was “completely undetectable”. The “Effect on the number of viable organisms” value (bacterial samples) was “did not significantly reduce the number of viable organisms”, the “Growth on tryptic soy agar plates after H202 treatment (bacterial slides)” value (E. coli [1]) was “No Growth” and the “CONCENTRATION (S. epi in device with H2O2)” value (S. epi; 5 hour H2O2 exposure, average H2O2 output 518±14 ppm, stock 3.5 × 10^6) was “NO GROWTH”. For the same compound, the “Sterilization result in words” value (S. epi; fifth experiment, 5 hour H2O2 exposure, 518±14 ppm) was “sterilized”, the “CONCENTRATION (S. epi in device with H2O2)” value (S. epi; hydrogen peroxide gas 30 minutes, average H2O2 output 561±27 ppm, ≥25° C., stock 5.0 × 10^6, contamination believed) was ~10^4 to 10^5 estimated and the “CONCENTRATION (E. coli in device with H2O2)” value (E. coli [2]; hydrogen peroxide gas 30 minutes, average H2O2 output 561±27 ppm, ≥25° C., stock 2.5 × 10^7) was “NO GROWTH”. The “Sterilization result in words” value (E. coli [2]; tests of FIGS. 32 and 33, 30 minutes H2O2 gas) was “completely sterilized”.
